Results from patent US20200055839A1 (priority 2017, published 2020).

system: NL-RLuc virus; experiment: Inhibition of HIV replication (NL-RLuc virus, luciferase readout in MT-2 cells); type: cell-based; conditions: Human immunodeficiency virus 1, MT2, 120 h, MT-2 cells infected with NL-RLuc virus, 5 days of incubation, 10% FBS, at least 2 experiments
Method in brief: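 EC50 derived via median effect equation from at least 2 experiments, using luciferase expression as virus-growth readout. Replication-competent NL-RLuc reporter virus (nef partly replaced by Renilla luciferase) infected MT-2 cells with serial compound dilutions; 5-day incubation in RPMI 1640 plus 10% FBS.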

| SMILES | EC50 [nM] |
| --- | --- |
| COc1ccccc1CCOc1ccc(-c2cnc(C)c([C@H](OC(C)(C)C)C(=O)O)c2N2CCC(C)(C)CC2)nc1 [Example 296, (2S)-2-(tert-butoxy)-2-[4′-(4,4-dimethylpiperidin-1-yl)-5-[2-(2-methoxyphenyl)ethoxy]-6′-methyl-[2,3′-bipyridine]-5′-yl]acetic acid] | 2 |
| Cc1nc(N)c([C@H](OC(C)(C)C)C(=O)O)c(N2CCC(C)(C)CC2)c1-c1ccc(OCCc2ccc(F)cc2)cc1 [Example 2, (S)-2-(2-Amino-4-(4,4-dimethylpiperidin-1-yl)-5-(4-(4-fluorophenethoxy)phenyl)-6-methylpyridin-3-yl)-2-(tert-butoxy)acetic acid] | 5 |
| Cc1ncc(-c2ncc(OCCc3ccc(F)cc3)cn2)c(N2CCC(C)(C)CC2)c1[C@H](OC(C)(C)C)C(=O)O [Example 14, (S)-2-(tert-Butoxy)-2-(4-(4,4-dimethylpiperidin-1-yl)-5-(5-(4-fluorophenethoxy)pyrimidin-2-yl)-2-methylpyridin-3-yl)acetic acid] | 2 |
| CCCCCCOc1ccc(-c2cnc(C)c([C@H](OC(C)(C)C)C(=O)O)c2N2CCC(C)(C)CC2)nc1 [Example 334, (2S)-2-(tert-butoxy)-2-[4′-(4,4-dimethylpiperidin-1-yl)-5-(hexyloxy)-6′-methyl-[2,3′-bipyridine]-5′-yl]acetic acid] | 4 |
| Cc1ncc(-c2cccnc2)c(N2CCC(C)(C)CC2)c1[C@H](OC(C)(C)C)C(=O)O [Example 155, (2S)-2-(tert-Butoxy)-2-[4-(4,4-dimethylpiperidin-1-yl)-6-methyl-[3, 3′-bipyridine]-5-yl]acetic acid] | 11 |
| Cc1ncc(-c2ccc(OCCc3cccc(Cl)c3F)cn2)c(N2CCC(C)(C)CC2)c1[C@H](OC(C)(C)C)C(=O)O [Example 354, (2S)-2-(tert-butoxy)-2-{5-[2-(3-chloro-2-fluorophenyl)ethoxy]-4′-(4,4-dimethylpiperidin-1-yl)-6′-methyl-[2,3′-bipyridine]-5′-yl}acetic acid] | 0.5 |
| Cc1ccc(-c2cnc(C)c([C@H](OC(C)(C)C)C(=O)O)c2N2CCC(C)(C)CC2)c(F)c1F [Example 159, (2S)-2-(tert-Butoxy)-2-[5-(2,3-difluoro-4-methylphenyl)-4-(4,4-dimethylpiperidin-1-yl)-2-methylpyridin-3-yl]acetic acid] | 2 |
| COc1cc(-c2cnc(C)c([C@H](OC(C)(C)C)C(=O)O)c2N2CCC(C)(C)CC2)ccn1 [Example 164, (2S)-2-(tert-Butoxy)-2-[4-(4,4-dimethylpiperidin-1-yl)-2′-methoxy-6-methyl-[3, 4′-bipyridine]-5-yl]acetic acid] | 4 |
| CCC(C)(C)O[C@H](C(=O)O)c1c(C)ncc(-c2ncc(OCCc3ccc(F)cc3)cn2)c1N1CCC(C)(C)CC1 [Example 247, (S)-2-(4-(4,4-Dimethylpiperidin-1-yl)-5-(5-(4-fluorophenethoxy)pyrimidin-2-yl)-2-methylpyridin-3-yl)-2-(tert-pentyloxy)acetic acid] | 0.8 |
| Cc1nc(NCc2cccnc2)c(-c2ccc(OCCc3ccc(F)cc3)cc2)c(N2CCC(C)(C)CC2)c1[C@H](OC(C)(C)C)C(=O)O [Example 92, (S)-2-(tert-Butoxy)-2-(4-(4,4-dimethylpiperidin-1-yl)-5-(4-(4-fluorophenethoxy)phenyl)-2-methyl-6-((pyridin-3-ylmethyl)amino)pyridin-3-yl)acetic acid] | 4 |
| CC1(C)CCN(c2c(-c3ccc(OCCc4ccc(F)cc4)cc3)cnc(Cl)c2[C@H](OC(C)(C)C)C(=O)O)CC1 [Example 211, (S)-2-(tert-Butoxy)-2-(2-chloro-4-(4,4-dimethylpiperidin-1-yl)-5-(4-(4-fluorophenethoxy)phenyl)pyridin-3-yl)acetic acid] | 3 |
| CCC(C)COc1ccc(-c2cnc(C)c([C@H](OC(C)(C)C)C(=O)O)c2N2CCC(C)(C)CC2)nc1 (stereo partly drawn) [Example 360, (2S)-2-(tert-butoxy)-2-[4′-(4,4-dimethylpiperidin-1-yl)-6′-methyl-5-(2-methylbutoxy)-[2,3′-bipyridine]-5′-yl]acetic acid] | 0.8 |
| Cc1ncc(-c2ccc(O[C@H](C)c3ccccc3)cn2)c(N2CCC(C)(C)CC2)c1[C@H](OC(C)(C)C)C(=O)O [Example 350, (2S)-2-(tert-butoxy)-2-[4′-(4,4-dimethylpiperidin-1-yl)-6′-methyl-5-[(1R)-1-phenylethoxy]-[2,3′-bipyridine]-5′-yl]acetic acid] | 3 |
| CCOc1ccc(-c2cnc(C)c([C@H](OC(C)(C)C)C(=O)O)c2N2CCC(C)(C)CC2)cn1 [Example 112, (S)-2-(tert-Butoxy)-2-(4-(4,4-dimethylpiperidin-1-yl)-6′-ethoxy-6-methyl-[3, 3′-bipyridin]-5-yl)acetic acid] | 5 |
| Cc1ncc(-c2ccc(OC(C)C(C)C)nc2)c(N2CCC(C)(C)CC2)c1[C@H](OC(C)(C)C)C(=O)O (stereo partly drawn) [Example 438, (2S)-2-tert-Butoxy-2-(4-(4,4-dimethylpiperidin-1-yl)-6-methyl-6′-(3-methylbutan-2-yloxy)-3, 3′-bipyridin-5-yl)acetic acid] | 14 |
| Cc1ncc(-c2ccccn2)c(N2CCC(C)(C)CC2)c1[C@H](OC(C)(C)C)C(=O)O [Example 186, (2S)-2-(tert-Butoxy)-2-[4′-(4,4-dimethylpiperidin-1-yl)-6′-methyl-[2, 3′-bipyridine]-5′-yl]acetic acid] | 37 |
| Cc1ncc(-c2ccc(OCCc3ccccc3)cn2)c(N2CCC(C)(C)CC2)c1[C@H](OC(C)(C)C)C(=O)O [Example 285, (S)-2-(tert-Butoxy)-2-(4′-(4,4-dimethylpiperidin-1-yl)-6′-methyl-5-phenethoxy-[2, 3′-bipyridin]-5′-yl)acetic acid] | 0.6 |
| Cc1nc(CN2CCC3(CCC3)CC2)c(-c2cc(F)c(F)c(F)c2)c(N2CCC(C)(C)CC2)c1[C@H](OC(C)(C)C)C(=O)O [Example 193, (2S)-2-[6-({7-Azaspiro[3.5]nonan-7-yl}methyl)-4-(4,4-dimethylpiperidin-1-yl)-2-methyl-5-(3,4,5-trifluorophenyl)pyridin-3-yl]-2-(tert-butoxy)acetic acid] | 4 |
| Cc1nc(Nc2ccccc2)c(-c2ccc(OCCc3ccc(F)cc3)cc2)c(N2CCC(C)(C)CC2)c1[C@H](OC(C)(C)C)C(=O)O [Example 67, (S)-2-(tert-Butoxy)-2-(4-(4,4-dimethylpiperidin-1-yl)-5-(4-(4-fluorophenethoxy)phenyl)-2-methyl-6-(phenylamino)pyridin-3-yl)acetic acid] | 27 |
| COc1nc(-c2cnc(C)c([C@H](OC(C)(C)C)C(=O)O)c2N2CCC(C)(C)CC2)ccc1OCCc1ccc(F)cc1 [Example 249, (S)-2-(tert-Butoxy)-2-(4′-(4,4-dimethylpiperidin-1-yl)-5-(4-fluorophenethoxy)-6-methoxy-6′-methyl-[2, 3′-bipyridin]-5′-yl)acetic acid] | 2 |
| Cc1ncc(-c2cnc(O[C@@H](C)c3ccccc3)c(F)c2)c(N2CCC(C)(C)CC2)c1[C@H](OC(C)(C)C)C(=O)O [Example 400, (2S)-2-(tert-butoxy)-2-[4-(4,4-dimethylpiperidin-1-yl)-5′-fluoro-6-methyl-6′-[(1S)-1-phenylethoxy]-[3,3′-bipyridine]-5-yl]acetic acid] | 6 |
| COc1cccc(-c2cnc(C)c([C@H](OC(C)(C)C)C(=O)O)c2N2CCC(C)(C)CC2)c1F [Example 156, (2S)-2-(tert-Butoxy)-2-[4-(4,4-dimethylpiperidin-1-yl)-5-(2-fluoro-3-methoxyphenyl)-2-methylpyridin-3-yl]acetic acid] | 1 |
| Cc1ncc(-c2ccc(CN(C)c3ncnc4c3oc3ccccc34)cc2)c(N2CCC(C)(C)CC2)c1[C@H](OC(C)(C)C)C(=O)O [Example 20, (2S)-2-(tert-Butoxy)-2-[4-(4,4-dimethylpiperidin-1-yl)-2-methyl-5-(4-{[methyl({8-oxa-3,5-diazatricyclo[7.4.0.0^2,7]trideca-1(9),2(7),3,5,10,12-hexaen-6-yl})amino]methyl}phenyl)pyridin-3-yl]acetic acid] | 2 |
| Cc1ncc(-c2ccc(OCCc3ccc(F)cc3)c(C(F)(F)F)c2)c(N2CCC(C)(C)CC2)c1[C@H](OC(C)(C)C)C(=O)O [Example 241, (S)-2-(tert-Butoxy)-2-(4-(4,4-dimethylpiperidin-1-yl)-5-(4-(4-fluorophenethoxy)-3-(trifluoromethyl)phenyl)-2-methylpyridin-3-yl)acetic acid] | 7 |
| Cc1ncc(-c2cnc(OCC(C)C)c(Cl)c2)c(N2CCC(C)(C)CC2)c1[C@H](OC(C)(C)C)C(=O)O [Example 417, (S)-2-(tert-Butoxy)-2-(5′-chloro-4-(4,4-dimethylpiperidin-1-yl)-6′-isobutoxy-6-methyl-[3,3′-bipyridin]-5-yl)acetic acid] | 12 |
| COc1c(F)cc(-c2c(CN3CCCCCCC3)nc(C)c([C@H](OC(C)(C)C)C(=O)O)c2N2CCC(C)(C)CC2)cc1F [Example 199, (2S)-2-{6-[(Azocan-1-yl)methyl]-5-(3,5-difluoro-4-methoxyphenyl)-4-(4,4-dimethylpiperidin-1-yl)-2-methylpyridin-3-yl}-2-(tert-butoxy)acetic acid] | 4 |
| Cc1nc(N)c(-c2cnc(OCCc3cccc(F)c3)c(F)c2)c(N2CCC(C)(C)CC2)c1[C@H](OC(C)(C)C)C(=O)O [Example 116, (S)-2-(2-Amino-4-(4,4-dimethylpiperidin-1-yl)-5′-fluoro-6′-(3-fluorophenethoxy)-6-methyl-[3, 3′-bipyridin]-5-yl)-2-(tert-butoxy)acetic acid] | 1 |

same assay, conditions: MT-2 cells infected with NL-RLuc virus, 5 days of incubation, 10% FBS, at least 2 experiments

| SMILES | EC50 [nM] |
| --- | --- |
| Cc1ncc(-c2cnc(NCCc3ccc(F)cc3)c(F)c2)c(N2CCC(C)(C)CC2)c1[C@H](OC(C)(C)C)C(=O)O [Example 416, (S)-2-(tert-Butoxy)-2-(4-(4,4-dimethylpiperidin-1-yl)-5′-fluoro-6′-((4-fluorophenethyl)amino)-6-methyl-[3, 3′-bipyridin]-5-yl)acetic acid] | 0.6 |
